The target in data set [1] is T1, monoamine oxydase (Rattus norvegicus, UniProt P21396).
T1 construct: in vitro on homogenates of rat brain; from tissue; host or cells: rat brain homogenate
T1 sequence (P21396 1-526): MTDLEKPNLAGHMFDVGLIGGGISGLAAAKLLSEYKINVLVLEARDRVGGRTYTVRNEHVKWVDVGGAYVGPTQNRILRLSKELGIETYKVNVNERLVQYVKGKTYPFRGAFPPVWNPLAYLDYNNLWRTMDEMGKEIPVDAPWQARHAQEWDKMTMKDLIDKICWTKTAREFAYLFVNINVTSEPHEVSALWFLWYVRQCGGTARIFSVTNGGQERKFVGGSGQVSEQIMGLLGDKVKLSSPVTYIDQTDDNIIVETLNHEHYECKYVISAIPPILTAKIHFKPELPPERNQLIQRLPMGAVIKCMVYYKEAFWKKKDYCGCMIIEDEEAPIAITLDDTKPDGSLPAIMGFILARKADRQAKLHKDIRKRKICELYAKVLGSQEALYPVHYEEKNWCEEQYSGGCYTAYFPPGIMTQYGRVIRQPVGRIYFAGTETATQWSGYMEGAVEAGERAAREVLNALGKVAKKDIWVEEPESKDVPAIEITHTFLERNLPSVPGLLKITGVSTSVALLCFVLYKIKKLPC
In words: inhibition of the activity of the monoamine oxydase in vitro on homogenates of rat brain (serotonin as substrate). It counts as biochemical. As to conditions: serotonin as substrate at 480 μM, read-out: Test in vitro IC50. As for the experimental part:
in vitro on homogenates of rat brain, by measuring the concentration of the product inhibiting by 50% (IC50) the activity of the monoamine oxydase utilising serotonin as substrate at 480 μM, according to the method described by M. STROLIN BENEDETTI. T. BOUCHER and C. J. FOWLER in Naunyn--Schmiedebergs Archiv. of Pharm. (1983) 323, 315-320;

The subject of data set [2] is effects of serotonin (precursor hydroxy-5 tryptophan, 5-HTP). In words: potentiation of hydroxy-5 tryptophan (5-HTP): generalised trembling or stereotypies in rats. As to conditions: Rattus norvegicus, oral, 1 h before 120 mg/kg i.p. 5-HTP, generalised trembling or stereotypies in 50% of the animals, read-out: Test in vivo ED50. As for the experimental part: in vivo by determining in rats the dose of the product which, administered orally, causes in 50% of the animals (ED50) the appearance of generalised trembling or stereotypies (finger-tapping as on a piano, movements of the head) following the intraperitoneal administration 1 h after the first treatment of a dose of 120 mg/kg of hydroxy-5 tryptophan (5-HTP) [M. JALFRE, B. BUCHER, A. COSTON, G. MOCQUET, R. D. PORSOLT, Arch. Int. Pharmacodyn., (1982), 259, 194-221].

Data set [3] can be described thus: LD50 in mice, oral. As to conditions: mouse, in vivo.

For 18 molecules, IC50, ED50 and LD50 results are on record in US5001129A, “Oxazoloquinoline compounds and therapeutic application thereof” (Delalande S.A., priority 1987, dated 1991).

Consider `C=C[C@H]1OC(=O)N2c3ccccc3CC[C@@H]12` (relative stereo) [MD 200502, ethenyl-3 tetrahydro-3,3a,4,5 1H-oxazolo [3,4-a] quinoline-one-1], for which, in data set [1], the IC50 is 500 nM. Consider `C=C[C@@H]1OC(=O)N2c3ccccc3CC[C@@H]12` (relative stereo) [MD 200503, ethenyl-3 tetrahydro-3,3a,4,5 1H-oxazolo [3,4-a] quinoline-one-1], for which the ED50 in data set [2] amounted to 20 mg/kg. The IC50 in data set [1] is 57 nM. Regarding `O=C1O[C@H](CO)[C@@H]2CCc3ccccc3N12` (relative stereo) [MD 200504, cis hydroxymethyl-3 tetrahydro-3,3a,4,5 1H-oxazolo [3,4-a] quinoline-one-1], the ED50 in data set [2] came to 7.8 mg/kg. Take `O=C1O[C@H](CO)[C@@H]2Cc3ccccc3N12` (relative stereo) [MD 200602]: the IC50 in data set [1] came to 2800 nM.

Consider `COC[C@H]1OC(=O)N2c3ccccc3CC[C@@H]12` (relative stereo) [MD 200682, cis methoxymethyl-3 tetrahydro-3,3a,4,5 1H oxazolo [3,4-a] quinoline-one-1], for which the ED50 in data set [2] was 2.3 mg/kg. Besides, in data set [1], the IC50 is 90 nM.

For `O=C1O[C@@H](CO)[C@@H]2Cc3ccccc3N12` (relative stereo) [MD 200718], in data set [1], the IC50 worked out at 8700 nM. Still for that read-out and setting: then `COc1ccc2c(c1)CC[C@H]1[C@@H](CO)OC(=O)N21` (relative stereo) [MD 280386, cis hydroxymethyl-3 methoxy-7 tetrahydro-3,3a,4,5 1H-oxazino [3, 4a] quinoline-one-1], with 19 nM. Same read-out and setting: then `COc1ccc2c(c1)CC[C@H]1[C@H](CO)OC(=O)N21` (relative stereo) [MD 280387], with 75 nM.

Turning to `C=C[C@@H]1OC(=O)N2c3ccc(OC)cc3CC[C@@H]12` (relative stereo) [MD 280404, ethenyl-3 methoxy-7 tetrahydro-3,3a, 4,5 1H-oxazolo [3.4-a] quinoline-one-1], in data set [2], the ED50 was found to be 11 mg/kg. The IC50 in data set [1] amounted to 29 nM.

Turning to `C[C@@H]1OC(=O)N2c3ccccc3CC[C@@H]12` (relative stereo) [MD 280430, trans methyl-3 tetrahydro-3,3a,4,5 1 H-oxazolo [3,4-a] quinoline-one-1], in data set [2], the ED50 amounted to 105 mg/kg. Moreover, the IC50 in data set [1] amounted to 1400 nM. In the same order, the values of `COC[C@H]1OC(=O)N2c3ccc(OC)cc3CC[C@@H]12` (relative stereo) [MD 280448] are 1.8 mg/kg and 9 nM. In the case of `COC[C@@H]1OC(=O)N2c3ccc(OC)cc3CC[C@@H]12` (relative stereo) [MD 280449], the LD50 in data set [3] came to 1120 mg/kg. For the same molecule, the IC50 in data set [1] is 6 nM.

As to `COc1ccc2c(c1)CC[C@H]1[C@@H](CN)OC(=O)N21` (relative stereo) [MD 370024, cis aminomethyl-3 methoxy-7 tetrahydro-3,3a,4,5 1H-oxazolo [3,4-a] quinoline-one-2], in data set [1], the half-maximal inhibitory concentration (IC50) was found to be 1000 nM.

As to `COc1ccc2c(c1)CC[C@H]1[C@H](CN)OC(=O)N21` (relative stereo) [MD 370025], the IC50 in data set [1] stood at 1600 nM. With `CNC[C@H]1OC(=O)N2c3ccc(OC)cc3CC[C@@H]12` (relative stereo) [MD 370026], in data set [3], the LD50 turned out to be 263 mg/kg. As to `CNC[C@@H]1OC(=O)N2c3ccc(OC)cc3CC[C@@H]12` (relative stereo) [MD 370027], the ED50 in data set [2] is 5.8 mg/kg.

As to `O=C1O[C@@H](CO)[C@@H]2CCc3ccc(Cl)cc3N12` (relative stereo) [MD 370335], the IC50 in data set [1] was determined as 97 nM. On the same count and under the same terms, with `O=C1O[C@H](CO)[C@@H]2CCc3ccc(Cl)cc3N12` (relative stereo) [MD 370336] the figure was 80 nM.
